Seven molecules from patent US10093644B2, “3-[(Benzo[D][1,3]dioxolan-4-yl)-oxy]-3-arylpropylamine type compounds and applications thereof” (NHWA PHARMA. CORPORATION, priority 2014, dated 2018) can be followed below.

By LD50 is commonly meant the dose expected to kill half of the subjects tested. A word on the ED50: it is the midpoint of the dose-response relation.

Series [1] can be described thus: Acid stability evaluation in diluted hydrochloric acid. To be noted: 0.1 mol/L hydrochloric acid. The series is classed as physicochemical. Here is the method: The compound according to the invention was incubated in diluted hydrochloric acid (0.1 mol/L) at 37° C. for 2 h to test the decomposition of the compound (shown as %) and the results were shown as follows.

The test system of series [2] is mice. Kind of series: Mice tail suspension test (acquired despair experiment). In kind it is in vivo. To be noted: for immobilized time of mice tail suspension: i.g. (gavage); for ED50: Mus musculus, read-out: tail suspension ED50.
Series [3] is described as follows: Therapeutic index evaluation (LD50/ED50). The series is classed as in vivo. The note with it: for therapeutic index (swimming): LD50/ED50, swimming ED50; for therapeutic index (tail suspension): LD50/ED50, tail suspension ED50; for LD50: half lethal dose.
The test system of series [4] is mice. Nature of the series: Mice forced swimming test (acquired despair experiment). The series is classed as in vivo. The note with it: for immobilized time of mice swimming: i.g. (gavage); for ED50: Mus musculus, read-out: swimming ED50.

Values joined by “and” are separate entries in the source; they are usually repeats but may differ in a detail not shown here. Identical values can stand only once. Like-named read-outs stand apart in the source and are kept apart here.

With `CNCCC(Oc1cccc2c1OCO2)c1cccs1` (centres unmarked) [ammuxetine, reference compound], in series [1], the “ratio of the compound after incubation in diluted hydrochloric acid at 37° C. for 2 h” value (“ratio of the compound after incubation” for short) is 44%. In addition, in series [2] (half effective dose), the “tail suspension ED50” value came to 3.89 mg/kg. Also, in series [3], the “therapeutic index (swimming)” value stood at 68.9, the “therapeutic index (tail suspension)” value worked out at 45.7 and the LD50 came to 177.8 mg/kg. The “swimming ED50” value in series [4] (half effective dose) is listed as 2.58 mg/kg.
As for `CNCCC(Oc1cccc2c1OCO2)c1ccccc1.O=C(O)C(=O)O` (centres unmarked) [compound 2, 3-[(benzo[d][1,3]dioxolan-4-yl)-oxy]-N-methyl-3-phenylpropylamine oxalate], the “ratio of the compound after incubation” value in series [1] amounted to 99%. Moreover, the “immobilized time of mice tail suspension” value in series [2] (5 mg/kg, oxalate form) came out at 44.3 ± 34.5 s; in series [2] (10 mg/kg, oxalate form) it was 8.2 ± 13.7 s. For the same molecule, the ED50 in series [2] (half effective dose) worked out at 7.06 mg/kg; in series [4] (half effective dose) it was 2 mg/kg. Moreover, in series [3], the “therapeutic index (swimming)” value amounted to 88.8. Moreover, the “therapeutic index (tail suspension)” value in series [3] turned out to be 25.2. Besides, in series [3] (in vivo, read-out: LD50), the LD50 worked out at 178 mg/kg. In addition, the “immobilized time of mice swimming” value turned out to be 38.9 ± 34.5 s in series [4] (5 mg/kg, oxalate form) and 28.6 ± 19.3 s in series [4] (10 mg/kg, oxalate form).
Regarding `CNCCC(Oc1cccc2c1OCO2)c1cccc(OC)c1.O=C(O)C(=O)O` (centres unmarked) [compound 12, 3-[(benzo[d][1,3]dioxolan-4-yl)-oxy]-3-(3-methoxylphenyl)-N-methylpropylamine oxalate], the “ratio of the compound after incubation” value in series [1] came to 99%. Further, the “immobilized time of mice tail suspension” value in series [2] (5 mg/kg, oxalate form) is listed as 64.1 ± 24.5 s; in series [2] (10 mg/kg, oxalate form) it was 33.0 ± 15.6 s. Further, the ED50 worked out at 8.57 mg/kg in series [2] (half effective dose) and 5.28 mg/kg in series [4] (half effective dose). The “therapeutic index (swimming)” value in series [3] worked out at 60.7. The “therapeutic index (tail suspension)” value in series [3] was 37.4. In addition, the LD50 in series [3] (in vivo, read-out: LD50) stood at 320 mg/kg. Besides, the “immobilized time of mice swimming” value was found to be 92.0 ± 45.5 s in series [4] (5 mg/kg, oxalate form) and 58.2 ± 45.3 s in series [4] (10 mg/kg, oxalate form).
Turning to `Cc1cccc(C(CCN(C)C)Oc2cccc3c2OCO3)c1.O=C(O)C(=O)O` (centres unmarked) [compound 13, 3-[(benzo[d][1,3]dioxolan-4-yl)-oxy]-3-(3-methylphenyl)-N,N-dimethylpropylamine oxalate], the “ratio of the compound after incubation” value in series [1] came to 99%. The “immobilized time of mice tail suspension” value in series [2] (5 mg/kg, oxalate form) is 71.3 ± 32.7 s; in series [2] (10 mg/kg, oxalate form), 29.8 ± 21.3 s. The “immobilized time of mice swimming” value was 87.9 ± 55.6 s in series [4] (5 mg/kg, oxalate form) and 60.2 ± 38.6 s in series [4] (10 mg/kg, oxalate form).
For `CNCCC(Oc1cccc2c1OCO2)c1ccc(F)cc1.O=C(O)C(=O)O` (centres unmarked) [compound 4, 3-[(benzo[d][1,3]dioxolan-4-yl)-oxy]-3-(4-fluorophenyl)-N-methylpropylamine oxalate] the same measures were 99%, 21.4 ± 12.8 s, 29.6 ± 13.1 s, 74.1 ± 36.8 s and 60.1 ± 42.2 s.
`CNCC[C@H](Oc1cccc2ccccc12)c1cccs1` [duloxetine, reference compound]: the “ratio of the compound after incubation” value in series [1] was found to be 18%. The “immobilized time of mice tail suspension” value in series [2] (10 mg/kg, oxalate form) turned out to be 34.7 ± 42.3 s; in series [2] (20 mg/kg), 17.8 ± 18.5 s. The ED50 in series [2] was 5.96 mg/kg; in series [4], 4.94 mg/kg. Moreover, in series [3], the “therapeutic index (swimming)” value was 98.8 and 98.9. Further, the “therapeutic index (tail suspension)” value in series [3] stood at 82.1. For the same molecule, in series [3] (in vivo, read-out: LD50), the LD50 was found to be 489 mg/kg. The “immobilized time of mice swimming” value in series [4] (10 mg/kg, oxalate form) is given as 76.0 ± 57.8 s; in series [4] (20 mg/kg) it was 41.2 ± 33.3 s.
Turning to `CN(C)CCC(Oc1cccc2c1OCO2)c1ccc(F)cc1.O=C(O)C(=O)O` (centres unmarked) [compound 3, 3-[(benzo[d][1,3]dioxolan-4-yl)-oxy]-3-(4-fluorophenyl)-N,N-dimethylpropylamine oxalate], the “ratio of the compound after incubation” value in series [1] turned out to be 99%. Besides, the “immobilized time of mice tail suspension” value in series [2] (5 mg/kg, oxalate form) was found to be 22.0 ± 28.2 s; in series [2] (10 mg/kg, oxalate form) it was 9.2 ± 13.3 s. Further, the ED50 in series [2] (half effective dose) came to 4.32 mg/kg; in series [4] (half effective dose) it was 2.28 mg/kg. Also, the “therapeutic index (swimming)” value in series [3] stood at 155.6. The “therapeutic index (tail suspension)” value in series [3] is on record as 82.2. In series [3] (in vivo, read-out: LD50), the LD50 stood at 355 mg/kg. For the same molecule, the “immobilized time of mice swimming” value in series [4] (5 mg/kg, oxalate form) turned out to be 42.0 ± 56.1 s; in series [4] (10 mg/kg, oxalate form), 31.0 ± 54.2 s.
